Source: the supplement of paper PMC4862054

How the values were obtained:
Settings in all cases: incubation time: 72 h
CAL-148 [1] = experiment: normalised viability (% of control), CellTiter-Blue; higher = more viable cells (about 100 = DMSO control)
Procedure, shortened: (§1)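 Breast cancer cell lines in 20 µl suspension were seeded onto 384-well plates pre-loaded with compound dissolved in 5 µl medium, then incubated 72 h. CellTiter-Blue reagent (2.5 µl) was added for 2 h at 37 °C and fluorescence read at 560/590 nm. Each plate was normalised to vehicle (100) and a positive kill control (0), with Z'-factor quality control. The value is normalised viability at one listed concentration of the series.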

CAL-51 [2] = experiment: as above
Procedure, shortened: as §1

CAL-85-1 [3] = experiment: as above
Procedure, shortened: as §1

DU-4475 [4] = experiment: as above
Procedure, shortened: as §1

HDQ-P1 [5] = experiment: as above
Procedure, shortened: as §1

MDA-MB-453 [6] = experiment: as above
Procedure, shortened: as §1

HCC1143 [7] = experiment: normalised response (% of control), CellTox Green; higher = less cell death (100 = DMSO, 0 = benzethonium chloride kill control)
Procedure, shortened: (§2)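 In 384-well plates holding compound at 5 concentrations in 10-fold steps over a 10,000-fold range specific to each compound, breast cancer cell lines were seeded as 20 µl suspension and incubated 72 h. CellTox Green fluorescence was measured at 485/520 nm, after which CellTiter-Glo luminescence was measured following 10 min at room temperature. Plate signals were normalised to 0.1 % DMSO (100) and a positive kill control (0), and each value is the normalised signal at a single concentration.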

DU-4475 [8] = experiment: normalised response (% of control), CellTiter-Glo; higher = more viable cells (100 = DMSO, 0 = benzethonium chloride kill control)
Procedure, shortened: as §2

Hs578T [9] = experiment: as above
Procedure, shortened: as §2

MCF-10A [10] = experiment: as above
Procedure, shortened: as §2

MDA-MB-436 = experiment: as above
Procedure, shortened: as §2

MDA-MB-453 [11] = experiment: as above
Procedure, shortened: as §2

CAL-120 = experiment: drug sensitivity score (DSS), CellTiter-Glo (DSS (AUC-based score)); higher = stronger drug effect (viability inhibition or cytotoxicity); extreme values may be limits of the assay
Procedure, shortened: (§3)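 Normalisation on every plate relied on 0.1 % DMSO and a positive kill control. The plates, 384-well format, held compound at 5 concentrations 10-fold apart across a compound-specific 10,000-fold range, and breast cancer cell lines in 20 µl suspension were incubated on them for 72 h before CellTox Green and then CellTiter-Glo readings. The drug sensitivity score derives from the area under the fitted dose-response curve.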

CAL-148 [12] = experiment: as above
Procedure, shortened: as §3

CAL-51 [13] = experiment: as above
Procedure, shortened: as §3

CAL-85-1 [14] = experiment: as above
Procedure, shortened: as §3

HCC1143 [15] = experiment: as above
Procedure, shortened: as §3

HCC1599 = experiment: as above
Procedure, shortened: as §3

HDQ-P1 [16] = experiment: as above
Procedure, shortened: as §3

Hs578T [17] = experiment: as above
Procedure, shortened: as §3

MCF-10A [18] = experiment: as above
Procedure, shortened: as §3

MDA-MB-231 = experiment: as above
Procedure, shortened: as §3

MDA-MB-468 = experiment: as above
Procedure, shortened: as §3

MFM-223 = experiment: as above
Procedure, shortened: as §3

SK-BR-3 = experiment: as above
Procedure, shortened: as §3

COc1cc([C@@H]2c3cc4c(cc3[C@@H](O[C@@H]3O[C@@H]5CO[C@@H](C)O[C@H]5[C@H](O)[C@H]3O)[C@H]3COC(=O)[C@H]23)OCO4)cc(OC)c1O [Etoposide] (10000 nM)
normalised viability (CAL-148 [1]): 31.7%
normalised viability (CAL-51 [2]): 18.4%
normalised viability (CAL-85-1 [3]): 63.1%
normalised viability (DU-4475 [4]): 4.57%
normalised viability (HDQ-P1 [5]): 62.6%
normalised viability (MDA-MB-453 [6]): 61.4%
normalised response (HCC1143 [7]): 98.3%
normalised response (DU-4475 [8]): 19.6%
normalised response (Hs578T [9]): 67.3%
normalised response (MCF-10A [10]): 87.1%
normalised response (MDA-MB-436): 36.6%
normalised response (MDA-MB-453 [11]): 142%

CC(=O)Nc1ccc(C(=O)Nc2ccccc2N)cc1 [Tacedinaline]
drug sensitivity score (CAL-120): 0
drug sensitivity score (CAL-148 [12]): 0
drug sensitivity score (CAL-51 [13]): 0
drug sensitivity score (CAL-85-1 [14]): 0
drug sensitivity score (HCC1143 [15]): 0
drug sensitivity score (HCC1599): 0
drug sensitivity score (HDQ-P1 [16]): 0
drug sensitivity score (Hs578T [17]): 0
drug sensitivity score (MCF-10A [18]): 0
drug sensitivity score (MDA-MB-231): 0
drug sensitivity score (MDA-MB-468): 0
drug sensitivity score (MFM-223): 0
drug sensitivity score (SK-BR-3): 0

CN(N=O)C(=O)N[C@@H](C=O)[C@@H](O)[C@H](O)[C@H](O)CO [Streptozocin] (10000 nM)
normalised viability (CAL-148 [1]): 105%
normalised viability (CAL-51 [2]): 101%
normalised viability (CAL-85-1 [3]): 91.1%
normalised viability (DU-4475 [4]): 92.6%
normalised viability (HDQ-P1 [5]): 122%
normalised viability (MDA-MB-453 [6]): 99.1%
normalised response (DU-4475 [8]): 96.1%
normalised response (Hs578T [9]): 109%
normalised response (MCF-10A [10]): 110%
normalised response (MDA-MB-436): 97.2%
normalised response (MDA-MB-453 [11]): 95.6%

CCC1=C[C@@H]2CN(C1)Cc1c([nH]c3ccccc13)[C@@](C(=O)OC)(c1cc3c(cc1OC)N(C)[C@H]1[C@@](O)(C(=O)OC)[C@H](OC(C)=O)[C@]4(CC)C=CCN5CC[C@]31[C@@H]54)C2 [Vinorelbine] (10000 nM)
normalised viability (CAL-148 [1]): 30.3%
normalised viability (CAL-51 [2]): 11.5%
normalised viability (CAL-85-1 [3]): 44.2%
normalised viability (DU-4475 [4]): 9.67%
normalised viability (HDQ-P1 [5]): 38.9%
normalised viability (MDA-MB-453 [6]): 29.4%
normalised response (HCC1143 [7]): 106%
normalised response (DU-4475 [8]): 40.4%
normalised response (Hs578T [9]): 15.9%
normalised response (MCF-10A [10]): 78.3%
normalised response (MDA-MB-436): 24.5%
normalised response (MDA-MB-453 [11]): 53.8%
